Laboratory results as given in PubChem BioAssay AID2060894 (Molecular Pharmacology Branch, DTP, NCI, 2025).

Tested on: K12877-001-R-J1-PDC complex spheroid viability
Assay: Anticancer human tumor K12877-001-R-J1-PDC patient-derived lung adenocarcinoma cell line growth inhibition [RAS]
Details: for IC50: curve of first compound; for viability, T/C: stronger effect = lower value
Summary of the method: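 Agents were tested in combination matrices in half-log decrements from a top concentration at or near clinical Cmax (10 microM if undetermined). Targets were multi-cell spheroids of tumour lines plus HUVEC and MSC stromal cells.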
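Note: spheroids exposed to agents for one week before readout.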
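Throughout, for viability, T/C: tumour cells co-cultured with HUVEC and mesenchymal stem cells in spheroids.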

CCc1c2c(nc3ccc(O)cc13)-c1cc3c(c(=O)n1C2)COC(=O)[C@]3(O)CC + C#Cc1c(F)ccc2cc(O)cc(-c3ncc4c(N5CC6CCC(C5)N6)nc(OCC56CCCN5CC(F)C6)nc4c3F)c12 showed an IC50 (second compound 0.0316 µM) of 4.79 nM, an IC50 (second compound 0.1 µM) of 5.39 nM and an IC50 (second compound 0.316 µM) of 5.3 nM. It also gave an IC50 (second compound 1 µM) of 5.51 nM, an IC50 (second compound 3.16 µM) of 5.35 nM and an IC50 (second compound 10 µM) of 4.74 nM. For the same compound, the viability, T/C (second compound 0.0316 µM, first compound 0.000949 µM) was 109%, the viability, T/C (second compound 0.0316 µM, first compound 0.003 µM) was 77.1% and the viability, T/C (second compound 0.0316 µM, first compound 0.00949 µM) was 10.3%. The viability, T/C (second compound 0.0316 µM, first compound 0.03 µM) was 4.77%, the viability, T/C (second compound 0.0316 µM, first compound 0.0949 µM) was 2.24% and the viability, T/C (second compound 0.0316 µM, first compound 0.3 µM) was 0.94%. It also gave a viability, T/C (second compound 0.1 µM, first compound 0.000949 µM) of 107%, a viability, T/C (second compound 0.1 µM, first compound 0.003 µM) of 89% and a viability, T/C (second compound 0.1 µM, first compound 0.00949 µM) of 12.3%. For the same compound, the viability, T/C (second compound 0.1 µM, first compound 0.03 µM) was 4.96%, the viability, T/C (second compound 0.1 µM, first compound 0.0949 µM) was 2.8% and the viability, T/C (second compound 0.1 µM, first compound 0.3 µM) was 1.27%. For the same compound, the viability, T/C (second compound 0.316 µM, first compound 0.000949 µM) was 89.3%, the viability, T/C (second compound 0.316 µM, first compound 0.003 µM) was 87.6% and the viability, T/C (second compound 0.316 µM, first compound 0.00949 µM) was 11.5%. It also gave a viability, T/C (second compound 0.316 µM, first compound 0.03 µM) of 4.86%, a viability, T/C (second compound 0.316 µM, first compound 0.0949 µM) of 2.49% and a viability, T/C (second compound 0.316 µM, first compound 0.3 µM) of 1.48%. It also gave a viability, T/C (second compound 1 µM, first compound 0.000949 µM) of 86.5%, a viability, T/C (second compound 1 µM, first compound 0.003 µM) of 99.4% and a viability, T/C (second compound 1 µM, first compound 0.00949 µM) of 11.7%. The viability, T/C (second compound 1 µM, first compound 0.03 µM) was 9.22%, the viability, T/C (second compound 1 µM, first compound 0.0949 µM) was 2.66% and the viability, T/C (second compound 1 µM, first compound 0.3 µM) was 1.23%. It also gave a viability, T/C (second compound 3.16 µM, first compound 0.000949 µM) of 95%, a viability, T/C (second compound 3.16 µM, first compound 0.003 µM) of 85.9% and a viability, T/C (second compound 3.16 µM, first compound 0.00949 µM) of 14.4%. For the same compound, the viability, T/C (second compound 3.16 µM, first compound 0.03 µM) was 7.59%, the viability, T/C (second compound 3.16 µM, first compound 0.0949 µM) was 3.16% and the viability, T/C (second compound 3.16 µM, first compound 0.3 µM) was 2.37%. For the same compound, the viability, T/C (second compound 10 µM, first compound 0.000949 µM) was 82.9%, the viability, T/C (second compound 10 µM, first compound 0.003 µM) was 75.4% and the viability, T/C (second compound 10 µM, first compound 0.00949 µM) was 11.4%. The viability, T/C (second compound 10 µM, first compound 0.03 µM) was 5.12%, the viability, T/C (second compound 10 µM, first compound 0.0949 µM) was 4.3% and the viability, T/C (second compound 10 µM, first compound 0.3 µM) was 1.89%.
CCc1c2c(nc3ccc(O)cc13)-c1cc3c(c(=O)n1C2)COC(=O)[C@]3(O)CC + CCn1c(-c2cccnc2C(C)OC)c2c3cc(ccc31)N1CCOC(CC(NC(=O)C(C(C)C)N(C)C(=O)C3(F)CCN(C(=O)C#CC(C)(C)N(C)C)CC3)C(=O)N3CCCC(N3)C(=O)OCC(C)(C)C2)C1 gave an IC50 (second compound 0.000949 µM) of 4.24 nM, an IC50 (second compound 0.003 µM) of 3.18 nM and an IC50 (second compound 0.00949 µM) of 2.99 nM. For the same compound, the IC50 (second compound 0.03 µM) was 2.98 nM, the IC50 (second compound 0.0949 µM) was 2.7 nM and the IC50 (second compound 0.3 µM) was 1.63 nM. It also gave a viability, T/C (second compound 0.000949 µM, first compound 0.000949 µM) of 89.5%, a viability, T/C (second compound 0.000949 µM, first compound 0.003 µM) of 68.3% and a viability, T/C (second compound 0.000949 µM, first compound 0.00949 µM) of 7.36%. It also gave a viability, T/C (second compound 0.000949 µM, first compound 0.03 µM) of 4.07%, a viability, T/C (second compound 0.000949 µM, first compound 0.0949 µM) of 2.52% and a viability, T/C (second compound 0.000949 µM, first compound 0.3 µM) of 1.41%. The viability, T/C (second compound 0.003 µM, first compound 0.000949 µM) was 62.1%, the viability, T/C (second compound 0.003 µM, first compound 0.003 µM) was 52.2% and the viability, T/C (second compound 0.003 µM, first compound 0.00949 µM) was 8.47%. It also gave a viability, T/C (second compound 0.003 µM, first compound 0.03 µM) of 3.87%, a viability, T/C (second compound 0.003 µM, first compound 0.0949 µM) of 2.21% and a viability, T/C (second compound 0.003 µM, first compound 0.3 µM) of 1.33%. It also gave a viability, T/C (second compound 0.00949 µM, first compound 0.000949 µM) of 78.3%, a viability, T/C (second compound 0.00949 µM, first compound 0.003 µM) of 49.9% and a viability, T/C (second compound 0.00949 µM, first compound 0.00949 µM) of 7.64%. The viability, T/C (second compound 0.00949 µM, first compound 0.03 µM) was 4.13%, the viability, T/C (second compound 0.00949 µM, first compound 0.0949 µM) was 2.66% and the viability, T/C (second compound 0.00949 µM, first compound 0.3 µM) was 1.35%. The viability, T/C (second compound 0.03 µM, first compound 0.000949 µM) was 78.1%, the viability, T/C (second compound 0.03 µM, first compound 0.003 µM) was 49.9% and the viability, T/C (second compound 0.03 µM, first compound 0.00949 µM) was 7.8%. It also gave a viability, T/C (second compound 0.03 µM, first compound 0.03 µM) of 3.09%, a viability, T/C (second compound 0.03 µM, first compound 0.0949 µM) of 2.15% and a viability, T/C (second compound 0.03 µM, first compound 0.3 µM) of 1.08%. For the same compound, the viability, T/C (second compound 0.0949 µM, first compound 0.000949 µM) was 75.5%, the viability, T/C (second compound 0.0949 µM, first compound 0.003 µM) was 47.4% and the viability, T/C (second compound 0.0949 µM, first compound 0.00949 µM) was 6.39%. The viability, T/C (second compound 0.0949 µM, first compound 0.03 µM) was 4.02%, the viability, T/C (second compound 0.0949 µM, first compound 0.0949 µM) was 2.14% and the viability, T/C (second compound 0.0949 µM, first compound 0.3 µM) was 1.27%. It also gave a viability, T/C (second compound 0.3 µM, first compound 0.000949 µM) of 62.8%, a viability, T/C (second compound 0.3 µM, first compound 0.003 µM) of 35.8% and a viability, T/C (second compound 0.3 µM, first compound 0.00949 µM) of 5.11%. For the same compound, the viability, T/C (second compound 0.3 µM, first compound 0.03 µM) was 3.66%, the viability, T/C (second compound 0.3 µM, first compound 0.0949 µM) was 1.47% and the viability, T/C (second compound 0.3 µM, first compound 0.3 µM) was 1.32%.
Work on CC(Nc1ccc2c(c1)OCCn1cc(N3C(=O)OCC3C(F)F)nc1-2)C(N)=O (stereo unspecified) + C=CC(=O)N1CCN(c2nc(OCC3CCCN3C)nc3c(F)c(-c4nc(N)cc(C)c4C(F)(F)F)c(Cl)cc23)C(C)C1 yielded an IC50 (second compound 0.00316 µM) of 1220 nM, an IC50 (second compound 0.01 µM) of 1920 nM and an IC50 (second compound 0.0316 µM) of 2120 nM. For the same compound, the IC50 (second compound 0.1 µM) was 1860 nM, the IC50 (second compound 0.316 µM) was 1160 nM and the IC50 (second compound 1 µM) was 1430 nM. It also gave a viability, T/C (second compound 0.00316 µM, first compound 0.0316 µM) of 92%, a viability, T/C (second compound 0.00316 µM, first compound 0.1 µM) of 72.8% and a viability, T/C (second compound 0.00316 µM, first compound 0.316 µM) of 57.6%. The viability, T/C (second compound 0.00316 µM, first compound 1 µM) was 61.6%, the viability, T/C (second compound 0.00316 µM, first compound 3.16 µM) was 44.9% and the viability, T/C (second compound 0.00316 µM, first compound 10 µM) was 21.3%. It also gave a viability, T/C (second compound 0.01 µM, first compound 0.0316 µM) of 86.3%, a viability, T/C (second compound 0.01 µM, first compound 0.1 µM) of 69.6% and a viability, T/C (second compound 0.01 µM, first compound 0.316 µM) of 57.9%. For the same compound, the viability, T/C (second compound 0.01 µM, first compound 1 µM) was 64%, the viability, T/C (second compound 0.01 µM, first compound 3.16 µM) was 48.7% and the viability, T/C (second compound 0.01 µM, first compound 10 µM) was 18.7%. The viability, T/C (second compound 0.0316 µM, first compound 0.0316 µM) was 74.3%, the viability, T/C (second compound 0.0316 µM, first compound 0.1 µM) was 78.4% and the viability, T/C (second compound 0.0316 µM, first compound 0.316 µM) was 57.6%. For the same compound, the viability, T/C (second compound 0.0316 µM, first compound 1 µM) was 63.1%, the viability, T/C (second compound 0.0316 µM, first compound 3.16 µM) was 46.2% and the viability, T/C (second compound 0.0316 µM, first compound 10 µM) was 16.8%. It also gave a viability, T/C (second compound 0.1 µM, first compound 0.0316 µM) of 76.7%, a viability, T/C (second compound 0.1 µM, first compound 0.1 µM) of 64.7% and a viability, T/C (second compound 0.1 µM, first compound 0.316 µM) of 65%. It also gave a viability, T/C (second compound 0.1 µM, first compound 1 µM) of 63.2%, a viability, T/C (second compound 0.1 µM, first compound 3.16 µM) of 40.4% and a viability, T/C (second compound 0.1 µM, first compound 10 µM) of 15%. The viability, T/C (second compound 0.316 µM, first compound 0.0316 µM) was 75.9%, the viability, T/C (second compound 0.316 µM, first compound 0.1 µM) was 79.1% and the viability, T/C (second compound 0.316 µM, first compound 0.316 µM) was 62.3%. For the same compound, the viability, T/C (second compound 0.316 µM, first compound 1 µM) was 50.9%, the viability, T/C (second compound 0.316 µM, first compound 3.16 µM) was 37.6% and the viability, T/C (second compound 0.316 µM, first compound 10 µM) was 19.1%. For the same compound, the viability, T/C (second compound 1 µM, first compound 0.0316 µM) was 77%, the viability, T/C (second compound 1 µM, first compound 0.1 µM) was 70.9% and the viability, T/C (second compound 1 µM, first compound 0.316 µM) was 62.2%. It also gave a viability, T/C (second compound 1 µM, first compound 1 µM) of 53.1%, a viability, T/C (second compound 1 µM, first compound 3.16 µM) of 43.5% and a viability, T/C (second compound 1 µM, first compound 10 µM) of 19.6%.
